According to patent publication US4894460A (Pierrel S.p.A., priority 1982, dated 1990):
Like-named read-outs stand apart in the source and are kept apart here.

What was measured:
[1] = in vivo; settings: mouse, iv, mice, i.v. in dimethylsulfoxide, after seven days, Litchfield and Wilcoxon
Experimental: Intravenous Toxicity in Mice
Male CD1 mice from Charles River (Italy), weighing 25 g were used. Compounds were administered intravenously (i.v.), dissolved in dimethylsulfoxide, and the volume of administration was 0.01 ml per 10 g of body weight. The LD50 after seven days, was calculated according to the method of Litchfield and Wilcoxon (Experimental Therapeutics 96, 99 (1949)).

[2] = tested on: taenia coli; experiment: Antagonistic activity to calcium in the taenia coli of guinea pigs (CaCl2-induced contractions, in vitro); type: cell-based, Hartley albino guinea pigs; settings: for IC50: Cavia porcellus, 10 min, read-out: Calcium antagonistic activity in vitro ED50; for Inhibition of contractions due to CaCl2 after washing of the tissue: taenia coli, repeated washing
Experimental: Antagonistic Activity to Calcium in the Taenia Coli of Guinea Pigs
Hartley albino guinea pigs of average weight 450 g were used. The calcium antagonistic activity was determined stimulating the taenia coli, previously depolarized, with a single submaximal concentration of CaCl2 (10^-3 M), at intervals of 20 minutes (according to the method Naunyn Schmied. Arch. Pharmacol. 318, 235 (1982)). The products were left in contact with the preparation for 10 minutes. The ED50 were calculated from the percentage of maximum inhibition.

[3] = tested on: Spontaneous Hypertensive Rats (SHR); experiment: Hypotensive activity in spontaneous hypertensive rats (SHR); type: in vivo, Male SHR (Okamoto) rats; settings: for ED (25%): Rattus norvegicus, po, p.o. in 0.4% carboxymethyl cellulose, systolic arterial pressure, read-out: Hypotensive activity in SHR ED^SABP -25%; for Duration of hypotensive activity (still present after) / Hypotensive activity relative to Nifedipine / Hypotensive activity compared with Nifedipine: p.o.; for Hypotensive activity relative to Nifedipine: multiple of Nifedipine activity; for Hypotensive activity compared with Nifedipine: versus Nifedipine
Experimental: Hypotensive Activity in Spontaneous Hypertensive Rats (SHR)
Male SHR (Okamoto), of 70-100 days of age were used. The systolic arterial pressure (SABP) was determined by applying to the tail of the animal a pressure transducer with a sleeve connected to a BP-Recorder (W-W Electronic of Basel). The animals were previously warmed to 39° C. for a period of 15-20 minutes in a ventilated chamber.
The rats were previously trained to the registration for 1-2 days prior to the start of the experiment which consisted of a basic registration, the pharmacological treatment and then of subsequent registrations one hour and three hours after the treatment.
All the products were administered orally (p.o.), suspended in 0.4% carboxymethyl cellulose (Methocel); the volume of vehicle was 2 ml per kg.
The compounds of formula (I) were tested at three dose levels and the value of ED-25% was determined.

[4] = guinea pig taenia coli, depolarized, CaCl2 10^-3 M, 10 min contact, from maximum inhibition

| SMILES | LD50 at 168 h [1] | IC50 [2, 4] | ED (25%) [3] | Duration of hypotensive activity (still present after) [3] | Hypotensive activity relative to Nifedipine [3] | Hypotensive activity compared with Nifedipine [3] | IC50 [2] | Inhibition of contractions due to CaCl2 after washing of the tissue [2] |
| --- | --- | --- | --- | --- | --- | --- | --- | --- |
| COC(=O)C1=C(C)NC(C)=C(C(=O)OCCN2CCN(c3ccc(OC)cc3)CC2)C1c1cccc([N+](=O)[O-])c1 (centres unmarked) [0266B] | 22.7 mg/kg | 3.6 nM | 10.7 mg/kg | – | – | – | – | – |
| COC(=O)C1=C(C)NC(C)=C(C(=O)OCCN2CCN(c3ccc(F)cc3)CC2)C1c1cccc([N+](=O)[O-])c1 (centres unmarked) [0250B] | 17.7 mg/kg | 2.5 nM | 7.5 mg/kg | ≥ 30 h | about twice the activity of Nifedipine | superior activity | – | – |
| COC(=O)C1=C(C)NC(C)=C(C(=O)OC)C1c1ccccc1[N+](=O)[O-] [Nifedipine, reference compound] | – | – | 25 mg/kg | – | – | – | 2.6 nM | readily reversible |
| CCOC(=O)C1=C(C)NC(C)=C(C(=O)OC)C1c1cccc([N+](=O)[O-])c1 (centres unmarked) [Nitrendipine, reference compound] | – | 1.9 nM | – | – | – | – | – | – |
| COC(=O)C1=C(C)NC(C)=C(C(=O)OCCN2CCN(c3ccc(Cl)cc3)CC2)C1c1cccc([N+](=O)[O-])c1 (centres unmarked) [0264B] | 32.1 mg/kg | 6.4 nM | 6.3 mg/kg | ≥ 30 h | about twice the activity of Nifedipine | superior activity | – | – |
| CC1=C(C(=O)OCCN2CCN(c3ccc(F)cc3)CC2)C(c2cccc([N+](=O)[O-])c2)C(C(=O)OCC(C)C)=C(C)N1 (centres unmarked) [0282C] | 27.5 mg/kg | 4.9 nM | 3.9 mg/kg | – | – | – | – | – |
| COC(=O)C1=C(C)NC(C)=C(C(=O)OCCN2CCN(c3ccccn3)CC2)C1c1cccc([N+](=O)[O-])c1 (centres unmarked) [0251B] | 12.6 mg/kg | 4.6 nM | 34 mg/kg | – | – | – | – | – |
| COC(=O)C1=C(C)NC(C)=C(C(=O)OCCN2CCN(c3ccc(Cl)c(Cl)c3)CC2)C1c1cccc([N+](=O)[O-])c1 (centres unmarked) [0285C] | 39 mg/kg | 10.5 nM | 10.2 mg/kg | – | – | – | – | – |
| COCCOC(=O)C1=C(C)NC(C)=C(C(=O)OCCN2CCN(c3ccc(Cl)cc3)CC2)C1c1cccc([N+](=O)[O-])c1 (centres unmarked) [0293C, 2-[4-(4-Chlorophenyl)]piperazinoethyl-2,6-dimethyl-4-(3-nitrophenyl)-5-(2-methoxy)ethoxycarbonyl-1,4-dihydropyridine-3-carboxylate] | 16 mg/kg | 4.1 nM | 10.5 mg/kg | – | – | – | – | – |
| COC(=O)C1=C(C)NC(C)=C(C(=O)OCCN2CCN(c3ccccc3)CC2)C1c1cccc([N+](=O)[O-])c1 (centres unmarked) [0219A, 2-(4-Phenyl)piperazino-ethyl 2,6-dimethyl-4-(3-nitrophenyl)-5-methoxycarbonyl-1,4-dihydropyridine-3-carboxylate] | 8.6 mg/kg | 2.4 nM | 8.7 mg/kg | – | – | – | – | – |
| COC(=O)C1=C(C)NC(C)=C(C(=O)OCCN2CCN(c3ccccc3C)CC2)C1c1cccc([N+](=O)[O-])c1 (centres unmarked) [0243A, 2-[4-(2-Tolyl)]piperazino-ethyl 2,6-dimethyl-4-(3-nitrophenyl)-5-methoxycarbonyl-1,4-dihydropyridine-3-carboxylate] | 14.7 mg/kg | 1.9 nM | 6.6 mg/kg | – | – | – | – | – |
| CC1=C(C(=O)OCCN2CCN(c3ccc(Cl)cc3)CC2)C(c2cccc([N+](=O)[O-])c2)C(C(=O)OCC(C)C)=C(C)N1 (centres unmarked) [0292C, 2-[4-(4-Chlorophenyl)]piperazinoethyl-2,6-dimethyl-4-(3-nitrophenyl)-5-isobutoxycarbonyl-1,4-dihydropyridine-3-carboxylate] | 35 mg/kg | 94 nM | 11.7 mg/kg | – | – | – | – | – |
| CCOC(=O)C1=C(C)NC(C)=C(C(=O)OCCN2CCN(c3ccc(F)cc3)CC2)C1c1cccc([N+](=O)[O-])c1 (centres unmarked) [0284C] | 9.5 mg/kg | 1.3 nM | 5.3 mg/kg | – | – | – | – | – |
| COC(=O)C1=C(C)NC(C)=C(C(=O)OCCN2CCN(c3nccs3)CC2)C1c1cccc([N+](=O)[O-])c1 (centres unmarked) [0240A, 2-[4-(2-Thiazolyl)]piperazino-ethyl 2,6-dimethyl-4-(3-nitrophenyl)-5-methoxycarbonyl-1,4-dihydropyridine-3-carboxylate] | 7.1 mg/kg | 4.2 nM | 31 mg/kg | – | – | – | – | – |
| COC(=O)C1=C(C)NC(C)=C(C(=O)OCCN2CCN(c3ccc([N+](=O)[O-])c(C(F)(F)F)c3)CC2)C1c1cccc([N+](=O)[O-])c1 (centres unmarked) [0296C, 2-[4-(3-Trifluoromethyl-4-nitrophenyl)]piperazinoethyl-2,6-dimethyl-4-(3-nitrophenyl)-5-methoxycarbonyl-1,4-dihydropyridine-3-carboxylate] | 55 mg/kg | – | 87 mg/kg | – | – | – | 19 nM | – |
| COC(=O)C1=C(C)NC(C)=C(C(=O)OCCN2CCN(c3ncccn3)CC2)C1c1cccc([N+](=O)[O-])c1 (centres unmarked) [0241A] | 34.6 mg/kg | 4.6 nM | 72 mg/kg | – | – | – | – | readily reversible |
| COC(=O)C1=C(C)NC(C)=C(C(=O)OCCN2CCN(c3cccc(C(F)(F)F)c3)CC2)C1c1cccc([N+](=O)[O-])c1 (centres unmarked) [0249B] | 35.3 mg/kg | 22 nM | 6.6 mg/kg | ≥ 30 h | about twice the activity of Nifedipine | superior activity | – | – |
| COC(=O)C1=C(C)NC(C)=C(C(=O)OCCN2CCN(c3ccccc3OC)CC2)C1c1cccc([N+](=O)[O-])c1 (centres unmarked) [0242A, 2-[4-(2-Methoxyphenyl)]-piperazino-ethyl 2,6-dimethyl-4-(3-nitrophenyl)-5-methoxycarbonyl-1,4-dihydropyridine-3-carboxylate] | 2.9 mg/kg | 3.4 nM | 13.8 mg/kg | – | – | – | – | – |
| COC(=O)C1=C(C)NC(C)=C(C(=O)OCCN2CCN(c3ccc(C(F)(F)F)cc3)CC2)C1c1cccc([N+](=O)[O-])c1 (centres unmarked) [0297C, 2-[4-(4-Trifluoromethylphenyl)]piperazinoethyl-2,6-dimethyl-4-(3-nitrophenyl)-5-methoxycarbonyl-1,4-dihydropyridine-3-carboxylate] | 73 mg/kg | 15 nM | 4.4 mg/kg | – | – | – | – | – |
| COC(=O)C1=C(C)NC(C)=C(C(=O)OCCN(C)Cc2ccccc2)C1c1cccc([N+](=O)[O-])c1 (centres unmarked) [Nicardipine, reference compound] | – | 2.3 nM | 8.6 mg/kg | – | – | – | – | – |
| COC(=O)C1=C(C)NC(C)=C(C(=O)OCCN2CCN(c3ccc([N+](=O)[O-])cc3)CC2)C1c1cccc([N+](=O)[O-])c1 (centres unmarked) [0295C, 2-[4-(4-Nitrophenyl)]piperazinoethyl-2,6-dimethyl-4-(3-nitrophenyl)-5-methoxycarbonyl-1,4-dihydropyridine-3-carboxylate] | 38 mg/kg | – | > 20 mg/kg | – | – | – | 11 nM | – |
| CCOC(=O)C1=C(C)NC(C)=C(C(=O)OCCN2CCN(c3ccccc3)CC2)C1c1cccc([N+](=O)[O-])c1 (centres unmarked) [0291C] | 25 mg/kg | 3.9 nM | 6.6 mg/kg | – | – | – | – | – |
| COC(=O)C1=C(C)NC(C)=C(C(=O)OCCN2CCN(c3cccc(Cl)c3)CC2)C1c1cccc([N+](=O)[O-])c1 (centres unmarked) [0255B] | 25.5 mg/kg | 3.5 nM | 6.3 mg/kg | – | – | superior activity | – | – |
| CCOC(=O)C1=C(C)NC(C)=C(C(=O)OCCN2CCN(c3ccc(Cl)cc3)CC2)C1c1cccc([N+](=O)[O-])c1 (centres unmarked) [0294C, 2-[4-(4-Chlorophenyl)]piperazinoethyl-2,6-dimethyl-4-(3-nitrophenyl)-5-ethoxycarbonyl-1,4-dihydropyridine-3-carboxylate] | 19 mg/kg | 5.1 nM | 4.2 mg/kg | – | – | – | – | – |
| COCCOC(=O)C1=C(C)NC(C)=C(C(=O)OCCN2CCN(c3ccc(F)cc3)CC2)C1c1cccc([N+](=O)[O-])c1 (centres unmarked) [0283C] | 7.8 mg/kg | 2.6 nM | 8.3 mg/kg | – | – | – | – | – |
| COC(=O)C1=C(C)NC(C)=C(C(=O)OCCN2CCN(c3cccc(OC)c3)CC2)C1c1cccc([N+](=O)[O-])c1 (centres unmarked) [0298C, 2-[4-(3-Methoxyphenyl)]piperazinoethyl-2,6-dimethyl-4-(3-nitrophenyl)-5-methoxycarbonyl-1,4-dihydropyridine-3-carboxylate] | 38 mg/kg | 7.5 nM | 32 mg/kg | – | – | – | – | – |
| CC1=C(C(=O)OCCN2CCN(c3ccccc3)CC2)C(c2cccc([N+](=O)[O-])c2)C(C(=O)OCC(C)C)=C(C)N1 (centres unmarked) [0289C, 2-(4-Phenyl)piperazinoethyl-2,6-dimethyl-4-(3-nitrophenyl)-5-isobutoxycarbonyl-1,4-dihydropyridine-3-carboxylate] | 12 mg/kg | 6.3 nM | 2.2 mg/kg | – | – | – | – | – |
